Experimental data taken from patent publication US9321756B2, “Azole compounds as PIM inhibitors” (priority 2011, dated 2016).
Read-outs that look alike come from different tables or passages of the source.

Experiments:
Type in all cases: biochemical
[1] = molecular target: full length recombinant Pim-3 (Homo sapiens (Human), UniProt Q86V86); test: Pim enzyme assay (HTRF, phosphorylation of biotinylated-BAD (S112) peptide), Pim-3; settings: read-out: Pim3 IC50
Excerpt: Pim-3 was purchased from Millipore (UK).
The phosphorylation of biotinylated-BAD (S112) peptide by full length recombinant Pim-1, Pim-2, or Pim-3 protein was detected with streptavidin:Allophycocyanin (APC) conjugate and a europium (Eu) labeled antibody directed against phosphorylated-BAD (S112). […] The fluorescence is directly proportional to the amount of phosphorylated BAD peptide present in the reaction.
A reference compound was included on each assay plate in order to validate that plate; on one plate of every assay run, two additional reference compounds were included.
The final buffer conditions were as follows: 60 mM Hepes, pH 7.0, 0.05% BSA, 2 mM DTT. Incubations were carried out at RT (22° C.) for 2 h for Pim-1, 1 h and 30 min for Pim-3, and 45 min for Pim-2. The reaction was then stopped by the addition of 3 mM EDTA, and fluorescence was measured by an HTRF® Rubystar microplate reader. For each plate, percent of control (POC) values were calculated for each well. Values for the IC50 IP were estimated using a standard 4-parameter logistic model.

[2] = molecular target: full length recombinant Pim-1 (Homo sapiens (Human), UniProt P11309); test: Pim enzyme assay (HTRF, phosphorylation of biotinylated-BAD (S112) peptide), Pim-1; settings: read-out: Pim_1_IC50
[3] = molecular target: full length recombinant Pim-2 (Homo sapiens (Human), UniProt Q9P1W9); test: Pim enzyme assay (HTRF, phosphorylation of biotinylated-BAD (S112) peptide), Pim-2; settings: read-out: Pim2_IC50
Sequence of full length recombinant Pim-2 (Q9P1W9 whole entry): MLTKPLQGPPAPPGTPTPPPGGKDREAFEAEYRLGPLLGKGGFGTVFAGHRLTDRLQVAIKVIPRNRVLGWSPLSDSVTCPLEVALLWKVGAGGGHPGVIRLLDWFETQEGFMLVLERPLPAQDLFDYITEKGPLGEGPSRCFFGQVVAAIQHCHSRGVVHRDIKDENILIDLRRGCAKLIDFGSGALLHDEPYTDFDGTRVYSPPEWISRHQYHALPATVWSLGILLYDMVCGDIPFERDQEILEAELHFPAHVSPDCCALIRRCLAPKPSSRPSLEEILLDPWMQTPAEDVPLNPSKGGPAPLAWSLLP

Sequence of full length recombinant Pim-1 (P11309 whole entry): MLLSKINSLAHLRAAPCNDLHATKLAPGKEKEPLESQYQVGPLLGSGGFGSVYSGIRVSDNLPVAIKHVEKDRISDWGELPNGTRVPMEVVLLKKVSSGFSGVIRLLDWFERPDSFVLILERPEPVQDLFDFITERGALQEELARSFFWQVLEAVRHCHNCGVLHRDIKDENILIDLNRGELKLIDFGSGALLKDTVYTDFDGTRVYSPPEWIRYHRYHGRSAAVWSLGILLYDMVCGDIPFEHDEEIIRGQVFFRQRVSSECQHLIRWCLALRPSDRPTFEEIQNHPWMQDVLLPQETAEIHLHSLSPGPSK

| IC50 ([1]; Pim-3 enzyme assay) [nM] | IC50 ([2]; Pim-1 enzyme assay) [nM] | IC50 ([3]; Pim-2 enzyme assay) [nM] | IC50 ([2]; HTRF, 10-point curve, high dose 1 uM, 2 h at RT) [nM] | IC50 ([3]; HTRF, 10-point curve, high dose 1 uM, 45 min at RT) [nM] | SMILES | IC50 [1] [nM] | IC50 [3] [nM] |
| --- | --- | --- | --- | --- | --- | --- | --- |
| 73.2 | 564 | 690 |  |  | Nc1nnc(-c2ccc3[nH]cc(-c4cnc(N5CCCC5)cn4)c3c2)s1 [Example 189, 5-(3-(5-(1-pyrrolidinyl)-2-pyrazinyl)-1H-indol-5-yl)-1,3,4-thiadiazol-2-amine] |  |  |
| 43.6 | 64.8 | 229 |  |  | CC(Nc1nnc(-c2ccc3[nH]cc(-c4ncccn4)c3c2)o1)c1ccccc1 (centres unmarked) [Example 266, N-(1-phenylethyl)-5-(3-(2-pyrimidinyl)-1H-indol-5-yl)-1,3,4-oxadiazol-2-amine] |  |  |
| 165 | 268 | 618 |  |  | COc1cncc(-c2c[nH]c3ccc(-c4nnc(N)s4)cc23)c1 [Example 199, 5-(3-(5-methoxy-3-pyridinyl)-1H-indol-5-yl)-1,3,4-thiadiazol-2-amine] |  |  |
| 540 | 365 | 2510 |  |  | COCC(=O)Nc1cccc(CNc2nnc(-c3ccc4[nH]cc(-c5ccccc5F)c4c3)s2)c1 [Example 146, N-(3-(((5-(3-(2-fluorophenyl)-1H-indol-5-yl)-1,3,4-thiadiazol-2-yl)amino)methyl)phenyl)-2-methoxyacetamide] |  |  |
| 522 | 1050 | > 3000 |  |  | Fc1ccccc1-c1c[nH]c2ccc(-c3nnc(NCc4ccccc4)s3)cc12 [Example 149, N-benzyl-5-(3-(2-fluorophenyl)-1H-indol-5-yl)-1,3,4-thiadiazol-2-amine] |  |  |
| 163 | 267 | 1700 |  |  | NC1CCN(c2nnc(-c3ccc4[nH]cc(-c5ccccc5F)c4c3)s2)CC1 [Example 144, 1-(5-(3-(2-fluorophenyl)-1H-indol-5-yl)-1,3,4-thiadiazol-2-yl)-4-piperidinamine] |  |  |
| 12 | 67 | 31.9 |  |  | Nc1nnc(-c2ccc3[nH]cc(-c4nccc(C(F)(F)F)n4)c3c2)o1 [Example 96, 5-(3-(4-(trifluoromethyl)-2-pyrimidinyl)-1H-indol-5-yl)-1,3,4-oxadiazol-2-amine] |  |  |
| 140 | 269 | 111 |  |  | Nc1nnc(-c2ccc3[nH]cc(-c4ncccn4)c3c2)o1 [Example 93, 5-(3-(2-pyrimidinyl)-1H-indol-5-yl)-1,3,4-oxadiazol-2-amine] |  |  |
| 227 | 538 | 1220 |  |  | CNc1nnc(-c2ccc3[nH]cc(-c4c(F)cccc4F)c3c2)s1 [Example 237, 5-(3-(2,6-difluorophenyl)-1H-indol-5-yl)-N-methyl-1,3,4-thiadiazol-2-amine] |  |  |
| 18.5 | 108 | 123 |  |  | CNc1nnc(-c2ccc3[nH]cc(-c4cccc(-n5ccnc5C)n4)c3c2)s1 [Example 234, N-methyl-5-(3-(6-(2-methyl-1H-imidazol-1-yl)-2-pyridinyl)-1H-indol-5-yl)-1,3,4-thiadiazol-2-amine] |  |  |
| 179 | 178 | 1010 |  |  | Nc1nnc(-c2ccc3[nH]cc(-c4cnc5ccccc5c4)c3c2)s1 [Example 21, 5-(3-(quinolin-3-yl)-1H-indol-5-yl)-1,3,4-thiadiazol-2-amine] |  |  |
| 354 | 2450 | > 3000 |  |  | CNc1nnc(-c2ccc3[nH]cc(-c4cccc(OC)c4)c3c2)s1 [Example 226, 5-(3-(3-methoxyphenyl)-1H-indol-5-yl)-N-methyl-1,3,4-thiadiazol-2-amine] |  |  |
| 197 | 712 | 856 |  |  | CNc1nnc(-c2ccc3[nH]cc(-c4cccc(-n5ccccc5=O)n4)c3c2)s1 [Example 238, 6′-(5-(5-(methylamino)-1,3,4-thiadiazol-2-yl)-1H-indol-3-yl)-2H-1,2′-bipyridin-2-one] |  |  |
| 351 | 983 | > 3000 |  |  | NC(=O)c1nnc(-c2ccc3[nH]cc(-c4cccc(N5CCOCC5)n4)c3c2)s1 [Example 242, 5-(3-(6-(4-morpholinyl)-2-pyridinyl)-1H-indol-5-yl)-1,3,4-thiadiazole-2-carboxamide] |  |  |
| 48.2 | 156 | 174 |  |  | N#Cc1cccc(-c2c[nH]c3ccc(-c4nnc(N)s4)cc23)n1 [Example 183, 6-(5-(5-amino-1,3,4-thiadiazol-2-yl)-1H-indol-3-yl)-2-pyridinecarbonitrile] |  |  |
| 414 | 2180 | > 10000 |  |  | CNc1nnc(-c2ccc3[nH]cc(-c4ccc(-c5cccs5)s4)c3c2)s1 [Example 241, 5-(3-(2,2′-bithiophen-5-yl)-1H-indol-5-yl)-N-methyl-1,3,4-thiadiazol-2-amine] |  |  |
| 123 | 241 | 623 |  |  | CNc1nnc(-c2ccc3[nH]cc(-c4cn[nH]c4)c3c2)s1 [Example 218, N-methyl-5-(3-(1H-pyrazol-4-yl)-1H-indol-5-yl)-1,3,4-thiadiazol-2-amine] |  |  |
| 12.3 | 25.9 | 46.6 |  |  | Nc1nnc(-c2ccc3[nH]cc(-c4cncc(Oc5ccccc5)n4)c3c2)o1 [Example 92, 5-(3-(6-phenoxy-2-pyrazinyl)-1H-indol-5-yl)-1,3,4-oxadiazol-2-amine] |  |  |
| 90.3 | 176 | 237 |  |  | Nc1nnc(-c2ccc3[nH]cc(-c4cc(C(=O)Nc5ccccc5)ccc4F)c3c2)s1 [Example 137, 3-(5-(5-amino-1,3,4-thiadiazol-2-yl)-1H-indol-3-yl)-4-fluoro-N-phenylbenzamide] |  |  |
| 268 | 1010 | 1440 |  |  | CNc1nnc(-c2ccc3[nH]cc(-c4ccn[nH]4)c3c2)s1 [Example 222, N-methyl-5-(3-(1H-pyrazol-5-yl)-1H-indol-5-yl)-1,3,4-thiadiazol-2-amine] |  |  |
| 918 | 2070 | > 3000 |  |  | Nc1nnc(-c2ccc3[nH]cc(-c4cccc(O)n4)c3c2)s1 [Example 196, 6-(5-(5-amino-1,3,4-thiadiazol-2-yl)-1H-indol-3-yl)-2-pyridinol] |  |  |
| 122 | 279 | 324 |  |  | CCOc1cnc(-c2c[nH]c3ccc(-c4nnc(N)o4)cc23)cn1 [Example 86, 5-(3-(5-ethoxy-2-pyrazinyl)-1H-indol-5-yl)-1,3,4-oxadiazol-2-amine] |  |  |
| 144 |  |  |  |  | Cc1nc(-c2c[nH]c3ccc(-c4nnc(N)s4)cc23)ccc1F [Example 191, 5-(3-(5-fluoro-6-methyl-2-pyridinyl)-1H-indol-5-yl)-1,3,4-thiadiazol-2-amine] |  |  |
|  |  |  | 767 | 299 | CC(C)Nc1nnc(-c2ccc3[nH]cc(-c4cncc(C(=O)NC5CC5)c4)c3c2)o1 [Example 299, N-cyclopropyl-5-(5-(5-((1-methylethyl)amino)-1,3,4-oxadiazol-2-yl)-1H-indol-3-yl)-3-pyridinecarboxamide] |  |  |
|  | 105 | 351 |  |  | Cc1cc(N)nc(-c2c[nH]c3ccc(-c4nnc(NC(C)(C)C)o4)cc23)n1 [Example 272, 2-(5-(5-(tert-butylamino)-1,3-4-oxadiazol-2-yl)-1H-indol-3-yl)-6-methyl-4-pyrimidinamine] |  |  |

| SMILES | IC50 ([1]; Pim-3 enzyme assay) [nM] | IC50 ([2]; Pim-1 enzyme assay) [nM] | IC50 ([3]; Pim-2 enzyme assay) [nM] | IC50 ([2]; HTRF, 10-point curve, high dose 1 uM, 2 h at RT) [nM] | IC50 ([3]; HTRF, 10-point curve, high dose 1 uM, 45 min at RT) [nM] | IC50 [1] [nM] | IC50 [3] [nM] |
| --- | --- | --- | --- | --- | --- | --- | --- |
| Cc1[nH]c2ccc(CNc3nnc(-c4ccc5[nH]cc(-c6ccc(F)cc6F)c5c4)s3)cc2c1C [Example 147, 5-(3-(2,4-difluorophenyl)-1H-indol-5-yl)-N-((2,3-dimethyl-1H-indol-5-yl)methyl)-1,3,4-thiadiazol-2-amine] | 634 | 513 | > 3000 |  |  |  |  |
| Oc1nnc(-c2ccc3[nH]cc(-c4ccc(F)cc4F)c3c2)s1 [Example 26, 5-(3-(2,4-difluorophenyl)-1H-indol-5-yl)-1,3,4-thiadiazol-2-ol] | 795 | 2000 | > 3000 |  |  |  |  |
| CCCCOc1cnc(-c2c[nH]c3ccc(-c4nnc(N)s4)cc23)cn1 [Example 193, 5-(3-(5-butoxy-2-pyrazinyl)-1H-indol-5-yl)-1,3,4-thiadiazol-2-amine] | 392 | 931 | 1550 |  |  |  |  |
| c1cc(-c2nnc(-c3ccc4[nH]cc(-c5cncc(C6CC6)n5)c4c3)o2)[nH]n1 [Example 39, 2-(3-(6-Cyclopropylpyrazin-2-yl)-1H-indol-5-yl)-5-(1H-pyrazol-5-yl)-1,3,4-oxadiazole 2,2,2-trifluoroacetate] |  | 51.4 |  |  |  | 19.8 | 158 |
| Cc1nnc2n1CCN(c1cccc(-c3c[nH]c4ccc(-c5nnc(N)s5)cc34)n1)C2 [Example 25, 5-(3-(6-(3-methyl-5,6-dihydro-[1,2,4]triazolo[4,3-a]pyrazin-7(8H)-yl)pyridin-2-yl)-1H-indol-5-yl)-1,3,4-thiadiazol-2-amine 2,2,2-trifluoroacetate] | 3.02 | 17.5 | 88.7 |  |  |  |  |
| COc1cncc(-c2c[nH]c3ccc(-c4nnc(N)o4)nc23)c1 [Example 10, 5-(3-(5-methoxypyridin-3-yl)-1H-pyrrolo[3,2-b]pyridin-5-yl)-1,3,4-oxadiazol-2-amine] | 642 | 1130 | 570 |  |  |  |  |
